Results on 8 molecules are retold here after DBAASP.

≈ marks a conversion by molar mass, not a printed value.

Test systems include Escherichia coli UB1005; Streptococcus agalactiae; Staphylococcus aureus; Bacillus cereus AS1.126; Escherichia coli AS1.349.
Test in all cases: ≥ marks a high value that may be exact or a test limit, other limits are often not marked, values filed in µg/mL are converted to µM
Assay [1] relates to Staphylococcus aureus ATCC 43300.
In assay [2] the test system is Salmonella enterica subsp. enterica serovar Choleraesuis CVCC 503.
The test system of assay [3] is Salmonella enterica subsp. enterica serovar Pullorum C79-13.
Assay [4] deals with Salmonella enterica subsp. enterica serovar Typhimurium C77-31.
For assay [5], the system named is Salmonella enterica subsp. enterica serovar Typhimurium ATCC 14028.
Assay [6] relates to Escherichia coli ATCC 25922.
Assay [7] concerns Staphylococcus epidermidis ATCC 12228.
Assay [8] deals with Enterococcus faecalis ATCC 29212.
In assay [9] the test system is Staphylococcus aureus ATCC 29213.
For assay [10], the system named is Staphylococcus aureus ATCC 25923.
Assay [11] relates to Bacillus subtilis ATCC 6633.
Assay [12] deals with Pseudomonas aeruginosa ATCC BAA-427.
The subject of assay [13] is Salmonella enterica subsp. enterica serovar Typhimurium ATCC 14028s.
Assay [14] deals with Pseudomonas aeruginosa K799.
For assay [15], the system named is Staphylococcus epidermidis C621.
Assay [16] concerns Enterococcus faecalis CGMCC 1.595.
Assay [17] relates to Pseudomonas aeruginosa CGMCC 1.860.
The test system of assay [18] is Staphylococcus aureus AS1.72.
Assay [19] concerns Lactococcus lactis AS1.1690.
Assay [20] has as its system Enterococcus faecium CGMCC 1.2334.

For orientation: MIC means the lowest concentration found to suppress growth. With `CC[C@H](C)[C@H](N)C(=O)N[C@@H](CS)C(=O)N[C@@H](CCCN=C(N)N)C(=O)N[C@@H](CCCCN)C(=O)N1CCC[C@H]1C(=O)N[C@H](C(=O)N[C@H](C(=O)N[C@@H](CS)C(=O)N[C@@H](CCCN=C(N)N)C(=O)N[C@@H](CCCCN)C(=O)N1CCC[C@H]1C(=O)N[C@H](C(=O)N[C@H](C(=O)N[C@@H](CS)C(=O)N[C@@H](CCCN=C(N)N)C(=O)N[C@@H](CCCCN)C(=O)N1CCC[C@H]1C(=O)N[C@H](C(N)=O)[C@@H](C)CC)[C@@H](C)CC)[C@@H](C)CC)[C@@H](C)CC)[C@@H](C)CC` [ICRKPIICRKPIICRKPI], the MIC in assay [1] was over 64 µM; in [2], 16 µM (≈ 34.4 µg/mL); with Escherichia coli UB1005, 4 µM (≈ 8.6 µg/mL); in the assay on Streptococcus agalactiae, at least 64 µM; in assay [3], at least 64 µM; in [4] it was 8 µM (≈ 17.2 µg/mL). For the same molecule, the minimal inhibitory concentration (MIC) in assay [5] is 8 µM (≈ 17.2 µg/mL); in assay [6], 8 µM (≈ 17.2 µg/mL); in assay [7], over 64 µM; in [8] it was over 64 µM; in assay [9], over 64 µM; in the assay with Staphylococcus aureus, over 64 µM.

For `CC[C@H](C)[C@H](N)C(=O)N[C@H](C(=O)N[C@H](C(=O)N[C@@H](CS)C(=O)N[C@@H](CCCN=C(N)N)C(=O)N[C@@H](CCCCN)C(=O)N1CCC[C@H]1C(=O)N[C@H](C(=O)N[C@H](C(=O)N[C@@H](CS)C(=O)N[C@@H](CCCN=C(N)N)C(=O)N[C@@H](CCCCN)C(=O)N1CCC[C@H]1C(=O)N[C@H](C(=O)N[C@H](C(=O)N[C@@H](CS)C(=O)N[C@@H](CCCN=C(N)N)C(=O)N[C@@H](CCCCN)C(=O)N1CCC[C@H]1C(=O)N[C@H](C(=O)N[C@H](C(=O)N[C@@H](CS)C(=O)N[C@@H](CCCN=C(N)N)C(=O)N[C@@H](CCCCN)C(=O)N1CCC[C@H]1C(=O)N[C@H](C(=O)N[C@H](C(=O)N[C@H](C(N)=O)[C@@H](C)CC)[C@@H](C)CC)[C@@H](C)CC)[C@@H](C)CC)[C@@H](C)CC)[C@@H](C)CC)[C@@H](C)CC)[C@@H](C)CC)[C@@H](C)CC)[C@@H](C)CC)[C@@H](C)CC` [IIICRKPIICRKPIICRKPIICRKPIII], the minimum inhibitory concentration (MIC) in [1] stood at 4 µM (≈ 13.3 µg/mL); in assay [2], 2 µM (≈ 6.63 µg/mL); with Escherichia coli UB1005, 2 µM (≈ 6.63 µg/mL); in the assay with Streptococcus agalactiae it was 2 µM (≈ 6.63 µg/mL); in assay [3], 4 µM (≈ 13.3 µg/mL); in assay [4] it was 2 µM (≈ 6.63 µg/mL). The minimal inhibitory concentration (MIC) in assay [5] is 2 µM (≈ 6.63 µg/mL); in assay [7] it was 4 µM (≈ 13.3 µg/mL); in assay [8], 8 µM (≈ 26.5 µg/mL); against Staphylococcus aureus, 4 µM (≈ 13.3 µg/mL).

For the molecule `CC[C@H](C)[C@H](N)C(=O)N[C@H](C(=O)N[C@H](C(=O)N[C@@H](CS)C(=O)N[C@@H](CCCN=C(N)N)C(=O)N[C@@H](CCCCN)C(=O)N1CCC[C@H]1C(=O)N[C@H](C(=O)N[C@H](C(=O)N[C@@H](CS)C(=O)N[C@@H](CCCN=C(N)N)C(=O)N[C@@H](CCCCN)C(=O)N1CCC[C@H]1C(=O)N[C@H](C(=O)N[C@H](C(=O)N[C@H](C(N)=O)[C@@H](C)CC)[C@@H](C)CC)[C@@H](C)CC)[C@@H](C)CC)[C@@H](C)CC)[C@@H](C)CC)[C@@H](C)CC` [IIICRKPIICRKPIII], the MIC was over 64 µM in [1]; at least 32 µM in [2]; 8 µM (≈ 15.1 µg/mL) against Escherichia coli UB1005; at least 64 µM against Streptococcus agalactiae; at least 32 µM in assay [3]; at least 32 µM in [4]. Also, the MIC was 32 µM (≈ 60.5 µg/mL) in [5]; 8 µM (≈ 15.1 µg/mL) in assay [6]; over 64 µM in assay [7]; over 64 µM in assay [8]; over 64 µM in [9]; over 64 µM in the assay with Staphylococcus aureus.

`CC(C)C[C@H](NC(=O)[C@H](CC(=O)O)NC(=O)[C@H](CC(C)C)NC(=O)[C@H](CCCCN)NC(=O)[C@H](CC(C)C)NC(=O)[C@H](CC(=O)O)NC(=O)[C@H](CC(C)C)NC(=O)[C@H](CCCCN)NC(=O)[C@H](CC(C)C)NC(=O)[C@H](CC(=O)O)NC(=O)[C@H](CC(C)C)NC(=O)[C@H](CCCCN)NC(=O)[C@@H](N)CCCN=C(N)N)C(=O)O` [RKLDLKLDLKLDL]: the MIC in assay [10] was 25 µM (≈ 39.6 µg/mL); in assay [11], 30 µM (≈ 47.5 µg/mL); in assay [6], 30 µM (≈ 47.5 µg/mL); in assay [12] it was at least 42 µM.

Consider `CC[C@H](C)[C@@H]1NC(=O)[C@H](CCCN=C(N)N)NC(=O)[C@H](C(C)C)NC(=O)[C@H](CCCN=C(N)N)NC(=O)[C@@H]2CCCN2C(=O)[C@@H](NC(=O)[C@H](CC(C)C)NC(=O)[C@@H](N)CCCN=C(N)N)CSSC[C@@H](C(=O)N[C@@H](CCCN=C(N)N)C(N)=O)NC(=O)[C@H](C(C)C)NC(=O)[C@H](CCCN=C(N)N)NC1=O` [RLCPRVRIRVCR], for which the minimum inhibitory concentration (MIC) with Escherichia coli UB1005 is 2.62 µM (≈ 3.99 µg/mL); in assay [10] it was over 21 µM; in [13] it was 21 µM (≈ 31.9 µg/mL); in assay [8], over 21 µM; in [14], 10.5 µM (≈ 16 µg/mL); in [15], 10.5 µM (≈ 16 µg/mL).

With `CC(C)C[C@H](NC(=O)[C@H](CC(=O)O)NC(=O)[C@H](CC(C)C)NC(=O)[C@H](CCCCN)NC(=O)[C@H](CC(C)C)NC(=O)[C@H](CC(=O)O)NC(=O)[C@H](CC(C)C)NC(=O)[C@H](CCCCN)NC(=O)[C@H](CC(C)C)NC(=O)[C@H](CC(=O)O)NC(=O)[C@H](CC(C)C)NC(=O)[C@H](CCCCN)NC(=O)[C@H](CCCN=C(N)N)NC(=O)[C@@H](N)CCCN=C(N)N)C(=O)O` [RRKLDLKLDLKLDL], the minimal inhibitory concentration (MIC) in assay [10] is 8 µM (≈ 13.9 µg/mL); in [11] it was 10 µM (≈ 17.4 µg/mL); in assay [6], 10 µM (≈ 17.4 µg/mL); in assay [12] it was 10 µM (≈ 17.4 µg/mL).

Take `CC(C)[C@H](N)C(=O)N[C@@H](CS)C(=O)N[C@@H](CCCN=C(N)N)C(=O)N[C@@H](CCCCN)C(=O)N1CCC[C@H]1C(=O)N[C@H](C(=O)N[C@H](C(=O)N[C@@H](CS)C(=O)N[C@@H](CCCN=C(N)N)C(=O)N[C@@H](CCCCN)C(=O)N1CCC[C@H]1C(=O)N[C@H](C(=O)N[C@H](C(=O)N[C@@H](CS)C(=O)N[C@@H](CCCN=C(N)N)C(=O)N[C@@H](CCCCN)C(=O)N1CCC[C@H]1C(=O)N[C@H](C(=O)N[C@H](C(=O)N[C@@H](CS)C(=O)N[C@@H](CCCN=C(N)N)C(=O)N[C@@H](CCCCN)C(=O)N1CCC[C@H]1C(=O)N[C@H](C(N)=O)C(C)C)C(C)C)C(C)C)C(C)C)C(C)C)C(C)C)C(C)C` [VCRKPVVCRKPVVCRKPVVCRKPV]: the MIC is over 64 µM in assay [1]; at least 64 µM in assay [2]; 8 µM (≈ 22 µg/mL) with Escherichia coli UB1005; at least 64 µM in the assay with Streptococcus agalactiae; at least 64 µM in [3]; 8 µM (≈ 22 µg/mL) in [4]. The MIC in assay [5] was 8 µM (≈ 22 µg/mL); in [6], 8 µM (≈ 22 µg/mL); in [7] it was over 64 µM; in assay [8], over 64 µM; in [9], over 64 µM; with Staphylococcus aureus it was over 64 µM.

On to `CC(C)[C@H](N)C(=O)N[C@@H](Cc1c[nH]c2ccccc12)C(=O)N[C@@H](CCCN=C(N)N)C(=O)N[C@@H](CCCN=C(N)N)C(=O)N[C@@H](Cc1c[nH]c2ccccc12)C(=O)N[C@@H](CCCN=C(N)N)C(=O)N[C@@H](CCCN=C(N)N)C(=O)N[C@@H](Cc1ccccc1)C(=O)N[C@@H](Cc1c[nH]c2ccccc12)C(=O)O` [VWRRWRRFW], for which the minimal inhibitory concentration (MIC) in [16] came out at 12.5 µM (≈ 18.1 µg/mL); in assay [17] it was 6.25 µM (≈ 9.05 µg/mL); in assay [18], 12.5 µM (≈ 18.1 µg/mL); in assay [19], 12.5 µM (≈ 18.1 µg/mL); in [20] it was 12.5 µM (≈ 18.1 µg/mL); in the assay with Bacillus cereus AS1.126, 6.25 µM (≈ 9.05 µg/mL). This molecule displayed an MIC in the assay on Escherichia coli AS1.349 of 12.5 µM (≈ 18.1 µg/mL).
